Measurements as given in patent publication US20250002475A1 (EPICS THERAPEUTICS, priority 2023, published 2025).

target: T1, recombinant METTL3/METTL14 complex (Homo sapiens, UniProt Q86U44); test: METTL3/14 Scintillation Proximity Assay (SPA), RNA methyltransferase activity; format: biochemical; details: 5.31 nM METTL3/14 complex, 250 nM RNA substrate, 1 μM 3H-SAM, 90 min; for compounds marked * best of the two separated forms
T1 construct: purchased Active Motif 311970; host or cells: Sf9 cells
T1 sequence (Q86U44 whole entry): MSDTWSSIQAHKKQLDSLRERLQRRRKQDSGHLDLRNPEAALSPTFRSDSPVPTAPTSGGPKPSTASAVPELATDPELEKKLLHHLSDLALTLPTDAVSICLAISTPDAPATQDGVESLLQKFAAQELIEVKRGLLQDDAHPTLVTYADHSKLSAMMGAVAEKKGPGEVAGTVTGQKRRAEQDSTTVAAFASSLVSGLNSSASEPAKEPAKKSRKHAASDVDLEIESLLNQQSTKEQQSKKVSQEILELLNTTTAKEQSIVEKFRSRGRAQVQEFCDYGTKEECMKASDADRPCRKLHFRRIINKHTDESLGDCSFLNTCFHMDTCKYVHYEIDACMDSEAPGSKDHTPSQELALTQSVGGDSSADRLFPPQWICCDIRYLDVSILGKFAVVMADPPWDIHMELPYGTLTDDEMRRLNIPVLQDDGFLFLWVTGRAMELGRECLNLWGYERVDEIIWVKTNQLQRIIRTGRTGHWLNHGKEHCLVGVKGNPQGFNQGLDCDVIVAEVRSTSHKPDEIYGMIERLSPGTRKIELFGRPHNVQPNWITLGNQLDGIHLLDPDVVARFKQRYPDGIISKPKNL
T1 sequence (Q9HCE5 whole entry partner): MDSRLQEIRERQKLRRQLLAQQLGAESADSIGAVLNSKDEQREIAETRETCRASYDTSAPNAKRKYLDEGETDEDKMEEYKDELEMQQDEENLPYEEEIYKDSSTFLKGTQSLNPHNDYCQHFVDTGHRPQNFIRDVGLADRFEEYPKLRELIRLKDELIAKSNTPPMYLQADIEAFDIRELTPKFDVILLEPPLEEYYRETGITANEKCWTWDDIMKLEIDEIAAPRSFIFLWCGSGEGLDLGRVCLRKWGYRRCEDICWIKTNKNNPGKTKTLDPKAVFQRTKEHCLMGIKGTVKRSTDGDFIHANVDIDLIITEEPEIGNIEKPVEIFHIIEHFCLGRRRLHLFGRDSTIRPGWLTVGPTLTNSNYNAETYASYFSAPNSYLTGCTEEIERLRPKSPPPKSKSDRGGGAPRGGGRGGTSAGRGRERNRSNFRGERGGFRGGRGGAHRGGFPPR

Row | SMILES | IC50
1 | CC(n1cnc(-c2cncc(N(C)C)c2)c1)n1ccc(N2CCC[C@@H](NCC3CC3)C2)cc1=O (single isomer, unassigned) [Compound 266] | ≤ 50 nM
2 | Cc1cc(N2CCC[C@@H](NCC3CC3)C2)cnc1C(C)n1cc(-c2cncc(C3CC3)c2)nn1 (single isomer, unassigned) [Compound 318] | ≤ 50 nM
3 | COc1cc(C(=O)NCc2ccc(N3CCC[C@@H](NCC4CCC4)C3)nn2)c2cn[nH]c2c1 [Compound 005, (R)-N-((6-(3-((cyclobutylmethyl)amino)piperidin-1-yl)pyridazin-3-yl)methyl)-6-methoxy-1H-indazole-4-carboxamide] | 50 to 500 nM
4 | N#Cc1cncc(-c2cn(Cc3ccc(N4CCC[C@@H](NCC5CCC5)C4)nn3)nn2)c1 [Compound 021, (R)-5-(1-((6-(3-((cyclobutylmethyl)amino)piperidin-1-yl)pyridazin-3-yl)methyl)-1H-1,2,3-triazol-4-yl)nicotinonitrile] | 50 to 500 nM
5 | c1cc(N2CCC[C@@H](NCC3CCC3)C2)nnc1Cn1cc(-c2csc3cncn23)nn1 [Compound 034, (R)-N-(cyclobutylmethyl)-1-(6-((4-(imidazo[5,1-b]thiazol-3-yl)-1H-1,2,3-triazol-1-yl)methyl)pyridazin-3-yl)piperidin-3-amine] | ≤ 50 nM
6 | COc1cc(-c2cn(Cc3ccc(N4CCCC(N5CC6(CCC6)C5)C4)nn3)nn2)c2cn[nH]c2c1 (stereo not drawn) [Compound 035, 4-(1-((6-(3-(2-azaspiro[3.3]heptan-2-yl)piperidin-1-yl)pyridazin-3-yl)methyl)-1H-1,2,3-triazol-4-yl)-6-methoxy-1H-indazole] | ≤ 50 nM
7 | COc1cc(-c2cn(Cc3ncc(N4CCCC(NCC5CCC5)C4)s3)nn2)c2cn[nH]c2c1 (stereo not drawn) [Compound 049, N-(cyclobutylmethyl)-1-(2-((4-(6-methoxy-1H-indazol-4-yl)-1H-1,2,3-triazol-1-yl)methyl)thiazol-5-yl)piperidin-3-amine] | ≤ 50 nM
8 | COc1cncc(-c2cn(Cc3ccc(N4CCCC(C)(NCC5CCC5)C4)nn3)nn2)c1 (stereo not drawn) [Compound 053, N-(cyclobutylmethyl)-1-(6-((4-(5-methoxypyridin-3-yl)-1H-1,2,3-triazol-1-yl)methyl)pyridazin-3-yl)-3-methylpiperidin-3-amine] | 50 to 500 nM
9 | COc1cncc(-c2cn(Cc3ccc(N4CCC(F)(F)C(NCC5CCC5)C4)nn3)nn2)c1 (stereo not drawn) [Compound 059, N-(cyclobutylmethyl)-4,4-difluoro-1-(6-((4-(5-methoxypyridin-3-yl)-1H-1,2,3-triazol-1-yl)methyl)pyridazin-3-yl)piperidin-3-amine] | 50 to 500 nM
10 | O=C(NCc1ccc(N2CCC[C@@H](NCC3CCC3)C2)nc1)c1cc(=O)n2ccccc2n1 [Compound 061, (R)-N-((6-(3-((cyclobutylmethyl)amino)piperidin-1-yl)pyridin-3-yl)methyl)-4-oxo-4H-pyrido[1,2-a]pyrimidine-2-carboxamide] | ≤ 50 nM
11 | CC(NC(=O)c1cc(=O)n2ccccc2n1)c1ccc(N2CCC[C@@H](NCC3CCC3)C2)nc1 (stereo partly drawn) [Compound 072, N-(1-(6-((R)-3-((cyclobutylmethyl)amino)piperidin-1-yl)pyridin-3-yl)ethyl)-4-oxo-4H-pyrido[1,2-a]pyrimidine-2-carboxamide] | 50 to 500 nM
12 | C[C@H](NC(=O)c1cc(=O)n2ccccc2n1)c1ccc(N2CCC[C@@H](NCC3CCC3)C2)cc1 [Compound 074, N-((S)-1-(4-((R)-3-((cyclobutylmethyl)amino)piperidin-1-yl)phenyl)ethyl)-4-oxo-4H-pyrido[1,2-a]pyrimidine-2-carboxamide] | ≤ 50 nM
13 | CC(c1ccc(N2CCC[C@@H](NCC3CCC3)C2)nn1)n1cc(-c2cc(=O)n3ccccc3n2)nn1 (stereo partly drawn) [Compound 089, 2-(1-(1-(6-((R)-3-((cyclobutylmethyl)amino)piperidin-1-yl)pyridazin-3-yl)ethyl)-1H-1,2,3-triazol-4-yl)-4H-pyrido[1,2-a]pyrimidin-4-one] | ≤ 50 nM
14 | CC(NC(=O)c1cc(=O)n2ccccc2n1)c1ccc(N2CCC[C@@H](NCC3CCC3)C2)cc1 (stereo partly drawn) [Compound 100, N-(1-(4-((R)-3-((cyclobutylmethyl)amino)piperidin-1-yl)phenyl)ethyl)-4-oxo-4H-pyrido[1,2-a]pyrimidine-2-carboxamide] | 50 to 500 nM
15 | COc1cncc(-c2cn(Cc3ccc(N4CCCCC(NCC5CCC5)C4)nn3)nn2)c1 (stereo not drawn) [Compound 101, N-(cyclobutylmethyl)-1-(6-((4-(5-methoxypyridin-3-yl)-1H-1,2,3-triazol-1-yl)methyl)pyridazin-3-yl)azepan-3-amine] | 50 to 500 nM
16 | CC(c1ccc(N2CCC[C@@H](NCC3CCC3)C2)cc1)n1cc(-c2cc(=O)n3ccccc3n2)nn1 (stereo partly drawn) [Compound 102] | ≤ 50 nM
17 | COc1cc(-c2cn(C(C)n3ccc(N4CCC[C@@H](NCC5CCC5)C4)cc3=O)nn2)cnc1C (stereo partly drawn) [Compound 104, 4-((R)-3-((cyclobutylmethyl)amino)piperidin-1-yl)-1-(1-(4-(5-methoxy-6-methylpyridin-3-yl)-1H-1,2,3-triazol-1-yl)ethyl)pyridin-2(1H)-one] | 50 to 500 nM
18 | COc1cncc(-c2cn(C(C)n3ccc(N4CCC[C@@H](NCC5CCC5)C4)cc3=O)nn2)c1C (stereo partly drawn) [Compound 108, 4-((R)-3-((cyclobutylmethyl)amino)piperidin-1-yl)-1-(1-(4-(5-methoxy-4-methylpyridin-3-yl)-1H-1,2,3-triazol-1-yl)ethyl)pyridin-2(1H)-one] | ≤ 50 nM

Now from value to compound:

Row | IC50 | SMILES
19 | ≤ 50 nM | CC(C(=O)Nc1cncc(N2CCCC2)c1)c1ccc(N2CCC[C@@H](NCC3CCC3)C2)cn1 (single isomer, unassigned) [Compound 264]
20 | ≤ 50 nM | CC(C(=O)Nc1cncc(N2CCCC2)n1)c1ccc(N2CCC[C@@H](NCC3CCC3)C2)cc1 (single isomer, unassigned) [Compound 294]
21 | 500 to 3500 nM | COc1cncc(C(=O)NCc2ccc(N3CCC[C@@H](NCC4CCC4)C3)nn2)c1 [Compound 004, (R)-N-((6-(3-((cyclobutylmethyl)amino)piperidin-1-yl)pyridazin-3-yl)methyl)-5-methoxynicotinamide]
22 | 50 to 500 nM | O=C(NCc1ccc(N2CCCC(N3CCC4(CC3)CC4)C2)nn1)c1cc(=O)n2ccccc2n1 (stereo not drawn) [Compound 014, N-((6-(3-(6-azaspiro[2.5]octan-6-yl)piperidin-1-yl)pyridazin-3-yl)methyl)-4-oxo-4H-pyrido[1,2-a]pyrimidine-2-carboxamide]
23 | 50 to 500 nM | O=C(NCc1ccc(N2CCC[C@@H](NCC3CC3)C2)nn1)c1cc(=O)n2ccccc2n1 [Compound 016, (R)-N-((6-(3-((cyclopropylmethyl)amino)piperidin-1-yl)pyridazin-3-yl)methyl)-4-oxo-4H-pyrido[1,2-a]pyrimidine-2-carboxamide]
24 | 50 to 500 nM | O=c1[nH]c(-c2cn(Cc3ccc(N4CCC[C@@H](NCC5CCC5)C4)nn3)nn2)nc2ccccc12 [Compound 029, (R)-2-(1-((6-(3-((cyclobutylmethyl)amino)piperidin-1-yl)pyridazin-3-yl)methyl)-1H-1,2,3-triazol-4-yl)quinazolin-4(3H)-one]
25 | 50 to 500 nM | COc1cncc(-c2cn(Cc3ccc(N4C[C@H](NCC5CCC5)CC[C@@H]4C)nn3)nn2)c1 [Compound 038, (3R,6S)-N-(cyclobutylmethyl)-1-(6-((4-(5-methoxypyridin-3-yl)-1H-1,2,3-triazol-1-yl)methyl)pyridazin-3-yl)-6-methylpiperidin-3-amine]
26 | ≤ 50 nM | O=c1[nH]c(-c2cn(Cc3ccc(N4CCC[C@@H](NCC5CCC5)C4)nn3)nn2)cc2ccccc12 [Compound 048, (R)-3-(1-((6-(3-((cyclobutylmethyl)amino)piperidin-1-yl)pyridazin-3-yl)methyl)-1H-1,2,3-triazol-4-yl)isoquinolin-1(2H)-one]
27 | 500 to 3500 nM | COc1cc(-c2cn(Cn3cc(F)c(N4CCCC(NCC5CCC5)C4)cc3=O)nn2)c2cn[nH]c2c1 (stereo not drawn) [Compound 054, 4-(3-((cyclobutylmethyl)amino)piperidin-1-yl)-5-fluoro-1-((4-(6-methoxy-1H-indazol-4-yl)-1H-1,2,3-triazol-1-yl)methyl)pyridin-2(1H)-one]
28 | ≤ 50 nM | COc1cncc(-c2cn(Cn3ncc(N4CCC[C@@H](NCC5CCC5)C4)cc3=O)nn2)c1 [Compound 062, (R)-5-(3-((cyclobutylmethyl)amino)piperidin-1-yl)-2-((4-(5-methoxypyridin-3-yl)-1H-1,2,3-triazol-1-yl)methyl)pyridazin-3(2H)-one]
29 | ≤ 50 nM | COc1cncc(-c2nnc(Cc3ccc(N4CCC[C@@H](NCC5CCC5)C4)nn3)[nH]2)c1 [Compound 069, (R)-N-(cyclobutylmethyl)-1-(6-((5-(5-methoxypyridin-3-yl)-4H-1,2,4-triazol-3-yl)methyl)pyridazin-3-yl)piperidin-3-amine]
30 | ≤ 50 nM | O=C(NCc1ccc(N2CCC[C@@H](NCC3CCC3)C2)cc1)c1cc(=O)n2ccccc2n1 [Compound 070, (R)-N-(4-(3-((cyclobutylmethyl)amino)piperidin-1-yl)benzyl)-4-oxo-4H-pyrido[1,2-a]pyrimidine-2-carboxamide]
31 | ≤ 50 nM | CC(n1cc(-c2cccnc2)nn1)n1ccc(N2CCC[C@@H](NCC3CCC3)C2)cc1=O (stereo partly drawn) [Compound 079, 4-((R)-3-((cyclobutylmethyl)amino)piperidin-1-yl)-1-(1-(4-(pyridin-3-yl)-1H-1,2,3-triazol-1-yl)ethyl)pyridin-2(1H)-one]
32 | ≤ 50 nM | CC(c1ccc(N2CCC[C@@H](NCC3CCC3)C2)nn1)n1cc(-c2cc(=O)n3cc(Cl)ccc3n2)nn1 (stereo partly drawn) [Compound 090, 7-chloro-2-(1-(1-(6-((R)-3-((cyclobutylmethyl)amino)piperidin-1-yl)pyridazin-3-yl)ethyl)-1H-1,2,3-triazol-4-yl)-4H-pyrido[1,2-a]pyrimidin-4-one]
33 | ≤ 50 nM | CC(n1cc(-c2cncc(F)c2)nn1)n1ccc(N2CCC[C@@H](NCC3CCC3)C2)cc1=O (stereo partly drawn) [Compound 094, 4-((R)-3-((cyclobutylmethyl)amino)piperidin-1-yl)-1-(1-(4-(5-fluoropyridin-3-yl)-1H-1,2,3-triazol-1-yl)ethyl)pyridin-2(1H)-one]
